Assay results reported in patent US20190270992A1, “METHODS OF CONTROLLING RED BLOOD CELL PRODUCTION” (WISCONSIN ALUMNI RESEARCH FOUNDATION, priority 2018, published 2019).
“Also recorded” adds a separate entry of the source.

Key:
[1] = system: lineage-negative fetal liver-derived hematopoietic precursors; test: Zinc chelation with TPEN and ZnCl2 add-back, flow cytometry (FluoZin-3, live/dead, CD71, Ter119); type: cell-based, murine
Procedure: (§1) Primary erythroid precursors from E14.5 murine fetal livers were cultured in StemPro®-34 (Gibco) supplemented with 10% nutrient supplement (Gibco), 1×L-glutamine (Cellgro), 1% penicillin-streptomycin (Gemini), 0.1 mM monothioglycerol (Sigma), 1 NM dexamethasone (Sigma), 0.5 U/ml erythropoietin (Amgen), and 1% conditioned medium from a Kit ligand-producing CHO cell line (expansion culture). To chelate zinc, 10 NM N,N,N′,N′-Tetrakis(2-pyridylmethyl)ethylenediamine (TPEN, Sigma, P4413) was added to the media, and 20 NM ZnCl2 (Fisher Scientific) was added back. After two days, cells were differentiated in IMDM (Gibco) containing 10% FBS (Gemini), 10% plasma-derived serum (PDS; Animal Technologies), 5% protein-free hybridoma medium II (PFHM II; Gibco), 1% penicillin-streptomycin (Gemini), 0.1 mM monothioglycerol (Sigma) and 6 U/ml of erythropoietin (Amgen).
(§2) Flow cytometry. For intracellular zinc quantitation in mouse cells, cells were washed twice with PBS and incubated with 1 l/ml Ghost Dye™ Red 780 (TONBO Biosciences) for 30 min at 4° C. Cells were washed once with PBS containing 2% FBS and twice with HBSS, and treated with HBSS containing 1 μM FluoZin™-3 AM (Invitrogen), 0.02% Pluronic® F-127 (Invitrogen), BV421-conjugated anti-mouse CD71 (0.2 μg in 100 μl, Biolegend, 113813), and APC-conjugated anti-mouse Ter119 (0.2 μg in 100 μl, Biolegend, 116212) for 30 min at room temperature. Cells were washed once with HBSS and incubated for 15 min at room temperature. Cells were then washed twice with PBS and analyzed. […] Cells were then washed twice with PBS and analyzed. For intracellular zinc quantitation in human cells, cells were washed twice with HBSS and incubated with HBSS containing 1 μM FluoZin™-3 AM, 0.02% Pluronic® F-127, PE-conjugated anti-human CD71 (0.024 μg in 100 μl, eBioscience, 12-0719-42), and APC-conjugated anti-human CD235a (0.006 μg in 100 μl, eBioscience 17-9987-42) for 30 min at room temperature. […] Cells were then washed twice with PBS, stained with DAPI, and analyzed. Samples were analyzed using a BD LSR II (BD Biosciences). […]

G1E-ER-GATA-1 cells = test: 5-ALA rescue of heme biosynthesis, qRT-PCR of zinc transporter genes; type: cell-based, murine; conditions: 1 mM 5-ALA to bypass ALAS-2 and rescue heme biosynthesis; FIG. 3B
Procedure: Cell culture. G1E-ER-GATA-1 cells were cultured in Iscove's modified Dulbecco's medium (IMDM; Gibco) containing 15% FBS (Gemini), 1% penicillin-streptomycin (Gemini), 2 U/ml erythropoietin (Amgen), 120 nM monothioglycerol (Sigma), and 0.6% conditioned medium from a Kit ligand-producing CHO cell line, and 1 μg/ml puromycin (Gemini). ER-GATA-1 activity was induced by adding 1 μM β-estradiol (Steraloids) to media. To rescue heme synthesis, 1 mM 5-aminolevulinic acid hydrochloride (5-ALA; Sigma) was added to media.
(§3) qRT-PCR. Total RNA was purified from 0.4-2×10^6 cells with TRIzol® (Life Technologies). RNA was treated with DNase I (Life Technologies) for 15 min at room temperature. DNase I was inactivated by EDTA and heating at 65° C. for 10 min. DNase I-treated RNA was incubated with 125 ng of a 5:1 mixture of oligo (dT) primers and random hexamer at 68° C. for 10 min. RNA/primers were incubated with Moloney MLV reverse transcriptase (Life Technologies), 10 mM DTT (Life Technologies), RNAsin® (Promega), and 0.5 mM deoxynucleoside triphosphates at 42° C. for 1 h, and then heat inactivated at 98° C. for 5 min. Real-time PCR reactions were conducted with Power SYBR® Green Master Mix (Applied Biosystems) using ViiA™ 7 Real-Time PCR system (Applied Biosystems). Primer sequences are described in Table 1.

[2] = system: lineage-negative hematopoietic precursors (E14.5); test: Erythroid populations (CD71, Ter119, FSC-A flow cytometry) in shRNA knockdown cells; type: cell-based, murine; conditions: day 5
Procedure: as §1, with “After two days, cells were differentiated in IMDM (Gibco) containing 10% FBS (Gemini), 10% plasma-derived serum (PDS; Animal Technologies), 5% protein-free hybridoma medium II (PFHM II; Gibco), 1% penicillin-streptomycin (Gemini), 0.1 mM monothioglycerol (Sigma) and 6 U/ml of erythropoietin (Amgen).” left out
as §2, with “Cells were washed once with PBS containing 2% FBS and twice with HBSS, and treated with HBSS containing 1 μM FluoZin™-3 AM (Invitrogen), 0.02% Pluronic® F-127 (Invitrogen), BV421-conjugated anti-mouse CD71 (0.2 μg in 100 μl, Biolegend, 113813), and APC-conjugated anti-mouse Ter119 (0.2 μg in 100 μl, Biolegend, 116212) for 30 min at room temperature. Cells were washed once with HBSS and incubated for 15 min at room temperature.” left out

[3] = system: lineage-negative hematopoietic precursors (E14.5); test: Intracellular zinc (FluoZin-3 flow cytometry) in shRNA knockdown cells; type: cell-based, murine
Procedure: as §1, with “After two days, cells were differentiated in IMDM (Gibco) containing 10% FBS (Gemini), 10% plasma-derived serum (PDS; Animal Technologies), 5% protein-free hybridoma medium II (PFHM II; Gibco), 1% penicillin-streptomycin (Gemini), 0.1 mM monothioglycerol (Sigma) and 6 U/ml of erythropoietin (Amgen).” left out
as §2, with “Cells were washed once with PBS containing 2% FBS and twice with HBSS, and treated with HBSS containing 1 μM FluoZin™-3 AM (Invitrogen), 0.02% Pluronic® F-127 (Invitrogen), BV421-conjugated anti-mouse CD71 (0.2 μg in 100 μl, Biolegend, 113813), and APC-conjugated anti-mouse Ter119 (0.2 μg in 100 μl, Biolegend, 116212) for 30 min at room temperature. Cells were washed once with HBSS and incubated for 15 min at room temperature.” left out

Slc30a1 mRNA = test: shRNA-mediated knockdown, qRT-PCR of Slc30a1 mRNA; type: cell-based, mouse; conditions: off-target check
Procedure: as §1
(§4) qRT-PCR. Total RNA was purified from 0.4-2×10^6 cells with TRIzol® (Life Technologies). RNA was treated with DNase I (Life Technologies) for 15 min at room temperature. DNase I was inactivated by EDTA and heating at 65° C. for 10 min. DNase I-treated RNA was incubated with 125 ng of a 5:1 mixture of oligo (dT) primers and random hexamer at 68° C. for 10 min. […]

[4] = system: lineage-negative hematopoietic precursors (E14.5); test: Thiazole orange (TO) discrimination of nucleated erythroblasts and enucleated progeny in shRNA knockdown cells; type: cell-based, murine; conditions: expanded 2 days, differentiated 3 days
Procedure: as §1, with “After two days, cells were differentiated in IMDM (Gibco) containing 10% FBS (Gemini), 10% plasma-derived serum (PDS; Animal Technologies), 5% protein-free hybridoma medium II (PFHM II; Gibco), 1% penicillin-streptomycin (Gemini), 0.1 mM monothioglycerol (Sigma) and 6 U/ml of erythropoietin (Amgen).” left out
as §2, with “Cells were washed once with PBS containing 2% FBS and twice with HBSS, and treated with HBSS containing 1 μM FluoZin™-3 AM (Invitrogen), 0.02% Pluronic® F-127 (Invitrogen), BV421-conjugated anti-mouse CD71 (0.2 μg in 100 μl, Biolegend, 113813), and APC-conjugated anti-mouse Ter119 (0.2 μg in 100 μl, Biolegend, 116212) for 30 min at room temperature. Cells were washed once with HBSS and incubated for 15 min at room temperature.” left out

Slc39a8 mRNA = test: shRNA-mediated knockdown, qRT-PCR of Slc39a8 mRNA; type: cell-based, mouse; conditions: Luciferase shRNA as control
Procedure: as §1, §4

[5] = system: mononuclear cells from G-CSF-mobilized peripheral blood; test: Cellularity after succinylacetone (flow cytometry, Wright-Giemsa staining); type: cell-based, human; conditions: succinylacetone during the last four days of culture
Procedure: (§5) Primary human mononuclear cells were isolated from G-CSF-mobilized peripheral blood using Histopaque® (Sigma). Cells were maintained in StemSpan™ SFEM medium (Stem Cell Technologies) supplemented with 1×CC100 cytokine mix (Stem Cell Technologies) for 4 days. […]
as §2, with “Cells were washed once with PBS containing 2% FBS and twice with HBSS, and treated with HBSS containing 1 μM FluoZin™-3 AM (Invitrogen), 0.02% Pluronic® F-127 (Invitrogen), BV421-conjugated anti-mouse CD71 (0.2 μg in 100 μl, Biolegend, 113813), and APC-conjugated anti-mouse Ter119 (0.2 μg in 100 μl, Biolegend, 116212) for 30 min at room temperature. Cells were washed once with HBSS and incubated for 15 min at room temperature.” left out

[6] = system: mononuclear cells from G-CSF-mobilized peripheral blood; test: qRT-PCR of gene expression after succinylacetone in human erythroid differentiation culture; type: cell-based; conditions: succinylacetone vs no treatment, day 19 and 20
Procedure: Primary human mononuclear cells were isolated from G-CSF-mobilized peripheral blood using Histopaque® (Sigma). Cells were maintained in StemSpan™ SFEM medium (Stem Cell Technologies) supplemented with 1×CC100 cytokine mix (Stem Cell Technologies) for 4 days. To induce differentiation, cells were cultured in basal differentiation media [IMDM containing 15% FBS, 2 mM L-glutamine, 1% BSA (Sigma), 500 μg/ml holo human transferrin (Sigma), and 10 [μg/ml insulin (Sigma)] supplemented with 1 μM dexamethasone (Sigma), 1 μM β-estradiol (Steraloids), 5 ng/ml IL-3, 100 ng/ml SCF, and 6 U/ml erythropoietin (Amgen) for 5 days, followed by four days in basal differentiation media supplemented with 50 ng/ml SCF and 6 U/ml erythropoietin and then seven days in basal differentiation media containing 2 U/ml erythropoietin.
as §3

[7] = system: mononuclear cells from G-CSF-mobilized peripheral blood; test: Heme quantitation after succinylacetone in human erythroid differentiation culture; type: cell-based; conditions: succinylacetone during the last four days of culture; day 20
Procedure: as §5
Heme quantitation. […] Electronic absorption spectra of cleared lysates were recorded on a Varian Cary 4 Bio spectrophotometer, and the oxyhemoglobin concentration of each cleared lysate was calculated using extinction coefficients at 542 nm and 577 nm for human oxyhemoglobin monomers. Total heme in each cleared lysate was determined for two technical replicates using the pyridine hemochrome assay in which 200 μl of a stock solution of 0.1 N NaOH and 33% (v/v) pyridine was combined with 100 μl of the cleared lysate. Upon addition of 2-5 mg of sodium dithionite, electronic absorption spectra were recorded, and total heme concentrations were calculated using known extinction coefficients of the ferrous bis(pyridine) protoheme complex at 525 nm and 556 nm as is known in the art.

[Cl-].[Cl-].[Zn+2] [ZnCl2]
effect of adding ZnCl2 to the media on the actions of TPEN ([1]; 10 NM TPEN, 20 NM ZnCl2 added back): negated the actions of TPEN

Cl.NCC(=O)CCC(=O)O [5-ALA, 5-aminolevulinic acid hydrochloride]
Slc30a1 expression (G1E-ER-GATA-1 cells): increased

c1ccc(CN(CCN(Cc2ccccn2)Cc2ccccn2)Cc2ccccn2)nc1 [TPEN, N,N,N′,N′-Tetrakis(2-pyridylmethyl)ethylenediamine]
live cell population ([1]; 10 NM TPEN in expansion culture, day 3): considerably decreased | intracellular zinc levels in erythroid precursors of varying maturation stage ([1]; 10 NM TPEN in expansion culture, FluoZin-3 MFI): reduced

TGATAATTGTCACTGACAG (listed as DNA, chemistry not fully specified) [shRNAs targeting Slc39a8, retrovirus-expressed shRNA against mouse zinc importer Slc39a8]
cellularity [2]: did not impact | intracellular zinc in all (more mature) populations ([3]; erythroid differentiation culture, day 5): no effect; also recorded: did not alter | decrease of intracellular zinc in R3 cells ([3]; expansion culture, day 2): 3.3 fold | Slc30a1 mRNA levels upon Slc39a8 loss (Slc30a1 mRNA): did not impact | cell populations (CD71/TO) [4]: did not influence | downregulation of Slc39a8 mRNA (Slc39a8 mRNA; day five (expanded two days, differentiated three days)): 71% | downregulation of Slc39a8 mRNA (Slc39a8 mRNA; day two (expanded for two days)): 86%

CC(=O)CC(=O)CCC(=O)O [Succinylacetone, succinylacetone]
cellularity [5]: did not impact | ACTB expression [6]: unaffected | HBA1 expression [6]: reduced | HBB expression [6]: reduced | SLC30A1 expression [6]: reduced | decrease of heme in oxyhemoglobin [7]: 3.4 fold | decrease of total heme [7]: 2.9 fold
